Data on 17 compounds can be found in patent publication US6982257B1, “Vitamin D3 derivative and its production method” (Teijin Limited, priority 1997, dated 2006).

Experiment [1] has as its system HL-60 cell. Kind of experiment: Differentiation induction of HL-60 cell, nitroblue tetrazolium (NBT) reduction activity. Format: cell-based. As to conditions: HL-60, 4 days culture. An excerpt: Activities of Objective Compounds of the Present Invention on Differentiation Induction effect of HL-60 Cell
HL-60 cell was purchased from a cell bank (Japanese Cancer Research Resource Bank, Cell Number: JCRB 0085). The cell was stored as a frozen storage stock for preventing the change of cell characteristics attributable to successive cultivation. Before the initiation of experiments, the cell was defrosted, and successive cultivation was started for using the cell in the experiments. The cell which had been treated by successive culturing for about one to six months was used for the experiments. The successive culturing was carried out by centrifugally recovering cells from cultivation mixture in suspension culture, and diluting the collected cell concentrate in a fresh culture medium at a ratio of about 1/100 (1−2×10^5 cells/ml). As the culture medium, an RPMI-1640 medium containing 10% fetal bovine serum was used. Successively cultured cells were centrifugally collected, and they were dispersed in a culture medium at the concentration of 2×10^4 cells/ml. The dispersion was seeded into a 24-well culture petri dish at 1 ml/well. An ethanol solution (1×10^−9M to 1×10^−6M) of a compound of the present invention was added to this system at 1 μl/well. Further, regarding 1 α,25(OH)2D3, an ethanol solution of 1×10^−7 M to 1×10^−4 M was added at 1 μl/well, and for the control, ethanol was added at 1 μl/well. After culturing at 37° C. for 4 days under a 5% CO2 atmosphere, the cells were centrifugally collected. Nitroblue tetrazolium (NBT) reduction activity was determined as follows. That is, the collected cells were suspended in a fresh culture medium, and NBT and 12-O-tetradecanoylphorbol-13-acetate were added to the resultant suspension so that their concentrations became 0.1% and 100 nM, respectively. After the mixed suspension was incubated at 37° C. for 25 min, a cytospin sample was prepared. After air drying, it was stained with Kernechtrot, and the ratio of the positive cells of NBT reduction activity was determined under an optical microscope.
Activities of Compounds of the Present Invention on Nitroblue Tetrazolium

Experiment [2] concerns the target T1, bovine thymus 1α,25-dihydroxyvitamin D3 receptor (VDR) (Bos taurus, UniProt Q28037).
T1 sequence (Q28037 1-426): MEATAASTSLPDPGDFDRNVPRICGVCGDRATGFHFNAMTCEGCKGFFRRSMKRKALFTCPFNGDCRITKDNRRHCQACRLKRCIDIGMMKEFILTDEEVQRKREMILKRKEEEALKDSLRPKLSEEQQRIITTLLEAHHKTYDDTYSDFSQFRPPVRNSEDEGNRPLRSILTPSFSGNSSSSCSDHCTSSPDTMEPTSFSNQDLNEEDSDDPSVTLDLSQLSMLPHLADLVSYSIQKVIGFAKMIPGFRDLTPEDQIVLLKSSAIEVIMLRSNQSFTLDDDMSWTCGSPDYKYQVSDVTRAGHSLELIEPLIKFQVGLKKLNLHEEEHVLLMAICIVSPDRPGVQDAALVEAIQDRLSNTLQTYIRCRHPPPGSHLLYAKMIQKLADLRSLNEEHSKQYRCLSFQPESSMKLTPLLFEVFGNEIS
As to conditions: relative intensity ratio based on 100 for 1α,25-dihydroxyvitamin D3, from the concentration inhibiting [3H]1α,25-dihydroxyvitamin D3 (0.1 nM) binding by 50%.
Procedure: The content (about 25 mg) of an ampule of a bovine thymus vitamin D receptor kit made by Yamasa Shoyu Ltd. was dissolved in 55 ml of a 0.05 M phosphoric acid-0.5 M potassium buffer solution (pH 7.4). Fifty μl of the ethanol solution of a compound to be tested and 500 μl of the receptor solution were pre-incubated at room temperature for 1 hr. […] To 500 μl of the supernatant, 9.5 ml of a liquid scintillation cocktail (ACS-II) was added, and the radioactivity of the resultant mixture was measured by a liquid scintillation counter.

As for `C=C1/C(=C\C=C2/CCC[C@]3(C)[C@@H]([C@H](C)CCCC(C)(C)O)CC[C@@H]23)C[C@@H](O)C[C@@H]1O` [1α,25-(OH)2VD3, 1α,25-dihydroxyvitamin D3, reference compound], the “Positive cells (%) of nitroblue tetrazolium reduction activity” value is 96.5 ± 1.0% in experiment [1] (concentration 10^−7 M), 86.1 ± 2.6% in experiment [1] (concentration 10^−8 M), 36.8 ± 2.0% in experiment [1] (concentration 10^−9 M) and 4.3 ± 1.2% in experiment [1] (concentration 10^−10 M).

`C=C1C(=CC=C2CCCC3(C)C2CCC3C(C)CCCC(C)(C)O)CC(O)C(C)C1O` [Compound (1), (20R)-1β,25-dihydroxy-2β-methyl-3β vitamin D3, reference compound]: the “Binding Affinity for VDR” value in experiment [2] is 0.05.

Consider `C=C1C(=CC=C2CCCC3(C)C2CCC3C(C)CCCC(C)(C)O)CC(O)C(C)C1O` [Compound (2), (20R)-1α,25-dihydroxy-2β-methyl-3α vitamin D3, reference compound], for which, in experiment [2], the “Binding Affinity for VDR” value is on record as 0.3.

Consider `C=C1C(=CC=C2CCCC3(C)C2CCC3C(C)CCCC(C)(C)O)CC(O)C(C)C1O` [Compound (3), (20R)-1β,25-dihydroxy-2β-methyl-3β vitamin D3, reference compound], for which the “Binding Affinity for VDR” value in experiment [2] is given as 0.8.

On to `C=C1C(=CC=C2CCCC3(C)C2CCC3C(C)CCCC(C)(C)O)CC(O)C(C)C1O` [Compound (4), (20R)-1α,25-dihydroxy-2α-methyl-3β vitamin D3, reference compound], for which the “Binding Affinity for VDR” value in experiment [2] is 400.

With `C=C1C(=CC=C2CCCC3(C)C2CCC3C(C)CCCC(C)(C)O)CC(O)C(C)C1O` [Compound (5), (20R)-1β,25-dihydroxy-2α-methyl-3β vitamin D3, reference compound], in experiment [2], the “Binding Affinity for VDR” value worked out at 0.05.

For the compound `C=C1C(=CC=C2CCCC3(C)C2CCC3C(C)CCCC(C)(C)O)CC(O)C(C)C1O` [Compound (6), (20R)-1α,25-dihydroxy-2α-methyl-3α vitamin D3, reference compound], the “Binding Affinity for VDR” value in experiment [2] amounted to 4.

Turning to `C=C1C(=CC=C2CCCC3(C)C2CCC3C(C)CCCC(C)(C)O)CC(O)C(C)C1O` [Compound (7), (20R)-1β,25-dihydroxy-2α-methyl-3α vitamin D3, reference compound], the “Binding Affinity for VDR” value in experiment [2] stood at 0.06.

Turning to `C=C1C(=CC=C2CCCC3(C)C2CCC3C(C)CCCC(C)(C)O)CC(O)C(C)C1O` [Compound (65), (20R)-1α,25-dihydroxy-2β-methyl-3β vitamin D3, reference compound], in experiment [2], the “Binding Affinity for VDR” value is listed as 13.

In the case of `C=C1/C(=C\C=C2/CCC[C@]3(C)[C@@H]([C@@H](C)CCCC(C)(C)O)CC[C@@H]23)C[C@@H](O)[C@@H](C)[C@@H]1O` [Compound (68), (20S)-1α,25-dihydroxy-2β-methyl-3β-vitamin D3], the “Positive cells (%) of nitroblue tetrazolium reduction activity” value came to 95.7 ± 1.0% in experiment [1] (concentration 10^−9 M), 57.7 ± 5.0% in experiment [1] (concentration 10^−10 M), 2.8 ± 0.7% in experiment [1] (concentration 10^−11 M) and 1.7 ± 0.3% in experiment [1] (concentration 10^−12 M). Moreover, the “Binding Affinity for VDR” value in experiment [2] was found to be 160.

`C=C1/C(=C\C=C2/CCC[C@]3(C)[C@@H]([C@@H](C)CCCC(C)(C)O)CC[C@@H]23)C[C@@H](O)[C@@H](C)[C@H]1O` [Compound (69), (20S)-1β,25-dihydroxy-2β-methyl-3β-vitamin D3]: the “Binding Affinity for VDR” value in experiment [2] was determined as 0.03.

For the compound `C=C1/C(=C\C=C2/CCC[C@]3(C)[C@@H]([C@@H](C)CCCC(C)(C)O)CC[C@@H]23)C[C@H](O)[C@@H](C)[C@@H]1O` [Compound (70), (20S)-1α,25-dihydroxy-2β-methyl-3α-vitamin D3], the “Binding Affinity for VDR” value in experiment [2] amounted to 0.08.

Take `C=C1/C(=C\C=C2/CCC[C@]3(C)[C@@H]([C@@H](C)CCCC(C)(C)O)CC[C@@H]23)C[C@H](O)[C@@H](C)[C@H]1O` [Compound (71), (20S)-1β,25-dihydroxy-2β-methyl-3α-vitamin D3]: the “Positive cells (%) of nitroblue tetrazolium reduction activity” value in experiment [1] (concentration 10^−9 M) worked out at 40.5 ± 1.8%; in experiment [1] (concentration 10^−10 M), 2.0 ± 1.0%; in experiment [1] (concentration 10^−11 M) it was 1.8 ± 0.8%; in experiment [1] (concentration 10^−12 M), 1.5 ± 0.8%. The “Binding Affinity for VDR” value in experiment [2] came to 7.

As to `C=C1C(=CC=C2CCCC3(C)C2CCC3C(C)CCCC(C)(C)O)CC(O)C(C)C1O` [Compound (72), (20S)-1α,25-dihydroxy-2α-methyl-3β-vitamin D3], the “Positive cells (%) of nitroblue tetrazolium reduction activity” value in experiment [1] (concentration 10^−9 M) came out at 96.2 ± 2.0%; in experiment [1] (concentration 10^−10 M), 95.7 ± 2.3%; in experiment [1] (concentration 10^−11 M), 94.4 ± 1.8%; in experiment [1] (concentration 10^−12 M) it was 3.7 ± 0.8%. For the same compound, in experiment [2], the “Binding Affinity for VDR” value is given as 1200.

For the compound `C=C1/C(=C\C=C2/CCC[C@]3(C)[C@@H]([C@@H](C)CCCC(C)(C)O)CC[C@@H]23)C[C@@H](O)[C@H](C)[C@H]1O` [Compound (73), (20S)-1β,25-dihydroxy-2α-methyl-3β-vitamin D3], the “Binding Affinity for VDR” value in experiment [2] turned out to be 0.05.

For the compound `C=C1/C(=C\C=C2/CCC[C@]3(C)[C@@H]([C@@H](C)CCCC(C)(C)O)CC[C@@H]23)C[C@H](O)[C@H](C)[C@@H]1O` [Compound (74), (20S)-1α,25-dihydroxy-2α-methyl-3α-vitamin D3], the “Positive cells (%) of nitroblue tetrazolium reduction activity” value came to 96.4 ± 1.4% in experiment [1] (concentration 10^−9 M), 16.7 ± 1.1% in experiment [1] (concentration 10^−10 M), 17.0 ± 2.3% in experiment [1] (concentration 10^−11 M) and 6.4 ± 1.1% in experiment [1] (concentration 10^−12 M). The “Binding Affinity for VDR” value in experiment [2] amounted to 17.

Take `C=C1/C(=C\C=C2/CCC[C@]3(C)[C@@H]([C@@H](C)CCCC(C)(C)O)CC[C@@H]23)C[C@H](O)[C@H](C)[C@H]1O` [Compound (75), (20S)-1β,25-dihydroxy-2α-methyl-3α-vitamin D3]: in experiment [2], the “Binding Affinity for VDR” value turned out to be 0.03.
